We go through one compound from patent US20130149311A1, “GFI1B MODULATION AND USES THEREOF” (INSTITUT DE RECHERCHES CLINIQUES DE MONTREAL, priority 2010, published 2013).

The subject of this test is HSCs. The test is described as follows: N-Acetyl-Cystein (NAC) feeding of plpC-treated Gfi1b^fl/fl and MxCre tg Gfi1b^fl/fl mice; hematological compartments and HSC numbers by flow cytometry. The test is classed as in vivo. The conditions noted are these: for Number of HSCs in BM NAC treatment / % Lin^− cells in BM NAC treatment / Number of BM cells × 10^6 NAC treatment / Number of HSCs in Spleen NAC treatment / Number of HSCs per 1 ml blood NAC treatment / Number of Lin^− cells × 10^6 NAC treatment / Number of splenocytes × 10^6 NAC treatment: plpC-treated, fed daily with N-Acetyl-Cystein, mean ± SEM. As to the method:
Treatment. MxCre tg Gfi1^fl/fl or Gfi1b^fl/fl mice were injected with polyinosinic-polycytidylic acid (plpC) (Sigma-Aldrich) at a dose of 500 μg per injection every other day for a total of 5 injections. As control, wt or Gfi1b^fl/fl mice not carrying the MxCre tg were injected with plpC. With regard to N-Acetyl-Cystein (Sigma-Aldrich, Mississagua) treatment, mice were fed every day with 500 μl N-Acety-Cystein (50 mg/ml)
Flow cytometry analysis, sorting of HSC and progenitors. HSCs and progenitors were analyzed with a LSR™, or Cyan flow cytometers and HSC were sorted with a MoFlo™ from adult mouse bone marrow as described previously (Kiel et al., 2005, supra; Adolfsson J et al., Cell 2005; 121:295-306). The BrdU experiments and the determination of cell cycle phases by Hoechst staining was done according to described procedures (Wilson et al., 2005, supra). Reactive oxygen species (ROS) were analyzed by staining HSCs with 5-(and-6)-carboxy-2′,7′-dichlorodihydrofluorescein diacetate (carboxy-H2DCFDA) (Invitrogen, Burlington, Canada) for 30 min at 37° C. After staining, cells were analyzed by flow cytometry for level of ROS in HSCs.
To verify whether loss of Gfi1b activates HSCs and that this activation leads to increased level of ROS which in turn could lead to an expansion of HSCs, mice were fed with N-Acetyl-Cystein (NAC), which counteracts the effects of ROS (Ito K, et al. Nat Med. April 2006; 12(4):446-451).
Background: In flow cytometry, cells or beads pass a laser one at a time.

Setting [1] is: Gfi1b^fl/fl Mx-Cre tg (Gfi1b deficient) mice.
The mark [2] stands for this setting: Gfi1b^fl/fl Mx-Cre tg vs Gfi1b^fl/fl, both NAC treated.

Regarding `CC(=O)N[C@@H](CS)C(=O)O` [NAC, N-Acetyl-Cystein], the “Number of HSCs in BM NAC treatment” value (Gfi1b^fl/fl (wt) mice, HSCs = Lin^−, Sca-1^+, Kit^+, CD150^+, CD48^−) was 1700 ± 700,. In addition, under “Gfi1b^fl/fl (wt) mice”, the “% Lin^− cells in BM NAC treatment” value is on record as 1.5 ± 0.1, %; the “Number of BM cells × 10^6 NAC treatment” value is given as 45 ± 4, × 10^6; the “Number of HSCs in Spleen NAC treatment” value is recorded as 197 ± 77,; the “Number of HSCs per 1 ml blood NAC treatment” value is recorded as 11 ± 1, per 1 ml blood. Also, where the note is “Gfi1b^fl/fl (wt) mice”, the “Number of Lin^− cells × 10^6 NAC treatment” value was 0.8 ± 0.1, × 10^6 and the “Number of splenocytes × 10^6 NAC treatment” value is 86 ± 22, × 10^6. Further, under setting [1], the “% Lin^− cells in BM NAC treatment” value is recorded as 2.45 ± 0.5, %; the “Number of BM cells × 10^6 NAC treatment” value was 44 ± 2, × 10^6; the “Number of HSCs in BM NAC treatment” value is 5700 ± 1100,; the “Number of HSCs in Spleen NAC treatment” value is 6000 ± 2000,. Further, under setting [1], the “Number of HSCs per 1 ml blood NAC treatment” value is 307 ± 100, per 1 ml blood; the “Number of Lin^− cells × 10^6 NAC treatment” value is 1.1 ± 0.4, × 10^6; the “Number of splenocytes × 10^6 NAC treatment” value is 104 ± 22, × 10^6. In addition, under setting [2], the “% Lin^− cells in BM NAC treatment, fold change” value is recorded as 1.6; the “Number of BM cells NAC treatment, fold change” value was found to be 1; the “Number of HSCs in BM NAC treatment, fold change” value stood at 3; the “Number of HSCs in Spleen NAC treatment, fold change” value was determined as 30. Under setting [2], the “Number of HSCs per 1 ml blood NAC treatment, fold change” value stood at 28; the “Number of Lin^− cells NAC treatment, fold change” value came out at 1.4; the “Number of splenocytes NAC treatment, fold change” value stood at 1.2. Moreover, where the note is “bone marrow, spleen and peripheral blood, NAC-treated vs untreated Gfi1b-deficient mice”, the “Effect on expansion of Gfi1b^ko/ko HSCs (frequencies and absolute numbers)” value is given as “significantly limited the expansion”.
